According to the supplement of paper PMC10307832:

How the values were obtained:
Assay in all cases: relative viability (nuclei count vs DMSO), 5 days (fraction); higher = more cells survive
[1] = system: NCI-H1734
Outline: (§1)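 Lung cancer cell lines, seeded in 1536-well plates, were treated the following day by pin tool with a single drug or with five library-drug doses (not always all listed) in √10 steps on top of a fixed anchor-drug dose. Cells were fixed and nuclei stained in one step after 5 days, and nuclei were counted. Relative viability is the nuclei count for treated wells divided by that for vehicle wells, reported as medians of duplicate plates.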

[2] = system: HCC-15
Outline: as §1

[3] = system: NCI-H520
Outline: as §1

[4] = system: H3255
Outline: as §1

[5] = system: HCC-827
Outline: as §1

[6] = system: CAL-12T
Outline: as §1

[7] = system: NCI-H322M
Outline: as §1

[8] = system: LK-2
Outline: as §1

[9] = system: EKVX
Outline: as §1

[10] = system: SK-MES-1
Outline: as §1

[11] = system: NCI-H1437
Outline: as §1

[12] = system: PC-3 [JPC-3]
Outline: as §1

[13] = system: PC-14
Outline: as §1

[14] = system: NCI-H2228
Outline: as §1

[15] = system: ABC-1
Outline: as §1

[16] = system: NCI-H1651
Outline: as §1

[17] = system: NCI-H661
Outline: as §1

[18] = system: RERF-LC-KJ
Outline: as §1

[19] = system: NCI-H1355
Outline: as §1

[20] = system: NCI-H1650
Outline: as §1

[21] = system: SW 1573
Outline: as §1

[22] = system: COR-L23
Outline: as §1

[23] = system: NCI-H2405
Outline: as §1

For Clc1ccc(Nc2nnc(Cc3ccncc3)c3ccccc23)cc1 [Vatalanib] + Cc1cc(Nc2cc(N3CCN(C)CC3)nc(Sc3ccc(NC(=O)C4CC4)cc3)n2)n[nH]1 [Tozasertib] (partner 0.1 µM), which relative viability ([1]; first compound 0.04 µM) is on record?
The relative viability was 0.31.

And the relative viability ([1]; first compound 0.1265 µM)?
The relative viability was 0.232.

What about the relative viability ([1]; first compound 0.4 µM) of the same molecule?
Its relative viability is 0.278.

What about the relative viability ([1]; first compound 1.265 µM) of the same molecule?
The relative viability was 0.276.

What about the relative viability ([1]; first compound 4 µM) of the same molecule?
The relative viability was 0.249.

What about the relative viability ([2]; first compound 0.04 µM) of the same molecule?
The relative viability was 0.419.

What about the relative viability ([2]; first compound 0.1265 µM) of the same molecule?
Its relative viability is 0.465.

What about the relative viability ([2]; first compound 0.4 µM) of the same molecule?
Its relative viability is 0.478.

And the relative viability ([2]; first compound 1.265 µM)?
The relative viability was 0.446.

And the relative viability ([2]; first compound 4 µM)?
Its relative viability is 0.426.

And the relative viability ([3]; first compound 0.04 µM)?
Its relative viability is 0.443.

And the relative viability ([3]; first compound 0.1265 µM)?
The relative viability was 0.385.

What about the relative viability ([3]; first compound 0.4 µM) of the same molecule?
The relative viability was 0.467.

And the relative viability ([3]; first compound 1.265 µM)?
Its relative viability is 0.443.

And the relative viability ([3]; first compound 4 µM)?
The relative viability was 0.422.

What about the relative viability ([4]; first compound 0.04 µM) of the same molecule?
Its relative viability is 0.626.

And the relative viability ([4]; first compound 0.1265 µM)?
The relative viability was 0.619.

And the relative viability ([4]; first compound 0.4 µM)?
The relative viability was 0.637.

What about the relative viability ([4]; first compound 1.265 µM) of the same molecule?
Its relative viability is 0.75.

And the relative viability ([4]; first compound 4 µM)?
Its relative viability is 0.63.

And the relative viability ([5]; first compound 0.04 µM)?
The relative viability was 0.378.

And the relative viability ([5]; first compound 0.1265 µM)?
Its relative viability is 0.423.

What about the relative viability ([5]; first compound 0.4 µM) of the same molecule?
Its relative viability is 0.463.

And the relative viability ([5]; first compound 1.265 µM)?
Its relative viability is 0.429.

What about the relative viability ([5]; first compound 4 µM) of the same molecule?
The relative viability was 0.367.

What about the relative viability ([6]; first compound 0.04 µM) of the same molecule?
Its relative viability is 0.307.

And the relative viability ([6]; first compound 0.1265 µM)?
The relative viability was 0.297.

What about the relative viability ([6]; first compound 0.4 µM) of the same molecule?
The relative viability was 0.304.

And the relative viability ([6]; first compound 1.265 µM)?
The relative viability was 0.266.

What about the relative viability ([6]; first compound 4 µM) of the same molecule?
Its relative viability is 0.277.

And the relative viability ([7]; first compound 0.04 µM)?
Its relative viability is 0.446.

What about the relative viability ([7]; first compound 0.1265 µM) of the same molecule?
The relative viability was 0.441.

What about the relative viability ([7]; first compound 0.4 µM) of the same molecule?
The relative viability was 0.553.

And the relative viability ([7]; first compound 1.265 µM)?
The relative viability was 0.479.

What about the relative viability ([7]; first compound 4 µM) of the same molecule?
The relative viability was 0.463.

What about the relative viability ([8]; first compound 0.04 µM) of the same molecule?
Its relative viability is 0.164.

What about the relative viability ([8]; first compound 0.1265 µM) of the same molecule?
The relative viability was 0.161.

What about the relative viability ([8]; first compound 0.4 µM) of the same molecule?
The relative viability was 0.173.

And the relative viability ([8]; first compound 1.265 µM)?
The relative viability was 0.182.

And the relative viability ([8]; first compound 4 µM)?
Its relative viability is 0.203.

And the relative viability ([9]; first compound 0.04 µM)?
Its relative viability is 0.392.

What about the relative viability ([9]; first compound 0.1265 µM) of the same molecule?
Its relative viability is 0.363.

And the relative viability ([9]; first compound 0.4 µM)?
Its relative viability is 0.427.

And the relative viability ([9]; first compound 4 µM)?
The relative viability was 0.343.

What about the relative viability ([10]; first compound 0.04 µM) of the same molecule?
Its relative viability is 0.951.

And the relative viability ([10]; first compound 0.1265 µM)?
Its relative viability is 0.897.

What about the relative viability ([10]; first compound 0.4 µM) of the same molecule?
Its relative viability is 1.01.

What about the relative viability ([10]; first compound 1.265 µM) of the same molecule?
Its relative viability is 0.813.

And the relative viability ([10]; first compound 4 µM)?
Its relative viability is 0.803.

And the relative viability ([11]; first compound 0.04 µM)?
Its relative viability is 0.409.

And the relative viability ([11]; first compound 0.1265 µM)?
Its relative viability is 0.353.

And the relative viability ([11]; first compound 0.4 µM)?
Its relative viability is 0.41.

And the relative viability ([11]; first compound 1.265 µM)?
The relative viability was 0.437.

And the relative viability ([11]; first compound 4 µM)?
The relative viability was 0.392.

What about the relative viability ([12]; first compound 0.04 µM) of the same molecule?
Its relative viability is 0.876.

And the relative viability ([12]; first compound 0.1265 µM)?
The relative viability was 0.864.

What about the relative viability ([12]; first compound 0.4 µM) of the same molecule?
Its relative viability is 0.873.

And the relative viability ([12]; first compound 1.265 µM)?
The relative viability was 0.835.

And the relative viability ([12]; first compound 4 µM)?
The relative viability was 0.876.

What about the relative viability ([13]; first compound 0.04 µM) of the same molecule?
The relative viability was 0.625.

And the relative viability ([13]; first compound 0.1265 µM)?
The relative viability was 0.523.

What about the relative viability ([13]; first compound 1.265 µM) of the same molecule?
Its relative viability is 0.51.

What about the relative viability ([13]; first compound 4 µM) of the same molecule?
Its relative viability is 0.592.

And the relative viability ([14]; first compound 0.04 µM)?
The relative viability was 0.235.

And the relative viability ([14]; first compound 0.1265 µM)?
Its relative viability is 0.309.

What about the relative viability ([14]; first compound 0.4 µM) of the same molecule?
The relative viability was 0.273.

What about the relative viability ([14]; first compound 1.265 µM) of the same molecule?
The relative viability was 0.227.

And the relative viability ([14]; first compound 4 µM)?
Its relative viability is 0.239.

What about the relative viability ([15]; first compound 0.04 µM) of the same molecule?
Its relative viability is 0.184.

And the relative viability ([15]; first compound 0.1265 µM)?
The relative viability was 0.166.

What about the relative viability ([15]; first compound 1.265 µM) of the same molecule?
Its relative viability is 0.177.

What about the relative viability ([15]; first compound 4 µM) of the same molecule?
The relative viability was 0.207.

And the relative viability ([16]; first compound 0.04 µM)?
Its relative viability is 0.845.

What about the relative viability ([16]; first compound 0.1265 µM) of the same molecule?
Its relative viability is 0.668.

What about the relative viability ([16]; first compound 0.4 µM) of the same molecule?
The relative viability was 0.701.

What about the relative viability ([16]; first compound 1.265 µM) of the same molecule?
Its relative viability is 0.667.

What about the relative viability ([16]; first compound 4 µM) of the same molecule?
The relative viability was 0.629.

And the relative viability ([17]; first compound 0.04 µM)?
Its relative viability is 0.357.

What about the relative viability ([17]; first compound 0.1265 µM) of the same molecule?
The relative viability was 0.363.

What about the relative viability ([17]; first compound 0.4 µM) of the same molecule?
Its relative viability is 0.331.

And the relative viability ([17]; first compound 1.265 µM)?
Its relative viability is 0.357.

And the relative viability ([17]; first compound 4 µM)?
The relative viability was 0.366.

And the relative viability ([18]; first compound 0.04 µM)?
Its relative viability is 0.602.

What about the relative viability ([18]; first compound 0.1265 µM) of the same molecule?
The relative viability was 0.555.

And the relative viability ([18]; first compound 0.4 µM)?
Its relative viability is 0.511.

What about the relative viability ([18]; first compound 1.265 µM) of the same molecule?
The relative viability was 0.454.

And the relative viability ([18]; first compound 4 µM)?
Its relative viability is 0.436.

And the relative viability ([19]; first compound 0.04 µM)?
Its relative viability is 0.585.

And the relative viability ([19]; first compound 0.1265 µM)?
Its relative viability is 0.58.

What about the relative viability ([19]; first compound 0.4 µM) of the same molecule?
Its relative viability is 0.664.

What about the relative viability ([19]; first compound 1.265 µM) of the same molecule?
Its relative viability is 0.462.

And the relative viability ([19]; first compound 4 µM)?
The relative viability was 0.521.

What about the relative viability ([20]; first compound 0.04 µM) of the same molecule?
Its relative viability is 0.398.

What about the relative viability ([20]; first compound 0.1265 µM) of the same molecule?
The relative viability was 0.246.

What about the relative viability ([20]; first compound 0.4 µM) of the same molecule?
The relative viability was 0.438.

What about the relative viability ([20]; first compound 1.265 µM) of the same molecule?
The relative viability was 0.37.

What about the relative viability ([20]; first compound 4 µM) of the same molecule?
Its relative viability is 0.425.

And the relative viability ([21]; first compound 0.04 µM)?
Its relative viability is 0.145.

And the relative viability ([21]; first compound 0.1265 µM)?
The relative viability was 0.165.

What about the relative viability ([21]; first compound 0.4 µM) of the same molecule?
Its relative viability is 0.215.

And the relative viability ([21]; first compound 1.265 µM)?
Its relative viability is 0.257.

And the relative viability ([21]; first compound 4 µM)?
The relative viability was 0.153.

And the relative viability ([22]; first compound 0.04 µM)?
The relative viability was 0.232.

What about the relative viability ([22]; first compound 0.1265 µM) of the same molecule?
The relative viability was 0.194.

And the relative viability ([22]; first compound 0.4 µM)?
Its relative viability is 0.206.

And the relative viability ([22]; first compound 1.265 µM)?
The relative viability was 0.168.

What about the relative viability ([22]; first compound 4 µM) of the same molecule?
The relative viability was 0.173.

What about the relative viability ([23]; first compound 0.04 µM) of the same molecule?
Its relative viability is 0.798.

And the relative viability ([23]; first compound 0.1265 µM)?
Its relative viability is 0.726.

And the relative viability ([23]; first compound 1.265 µM)?
The relative viability was 0.627.

And the relative viability ([23]; first compound 4 µM)?
The relative viability was 0.663.
